Consider three compounds from US5516525A, “Vitamin D derivative feed compositions and methods of use” (University of Georgia Research Foundation, Inc., priority 1994, dated 1996).

One assay concerns phytate phosphorus. Description: phytate (IP4, IP5, IP6) in feces, ferric chloride and HPLC procedures. The assay is classed as in vivo, chicken (Petersen X Arbor Acre cockerels).
The subject of assay [1] is tibial dyschondroplasia. The settings on record: cited from earlier work.
In assay [2] the test system is bone ash. Description: bone ash of left tibia (Example 1). The note with it: in words.
Description: The left tibia was removed for bone ash determination on the fat-free bone.
Assay [3] relates to phosphorus deficient rickets. Description: phosphorus deficient rickets (Example 1). The settings on record: in words, Exp 1.
Description: The birds were also scored for phosphorus deficient rickets at the same time they were scored for tibial dyschondroplasia. Chickens which had normal proliferating prehypertrophied zone and a lengthened metaphyseal primary spongiosa were classified as phosphorus deficient rickets.
Ri is an abbreviation for rickets incidence.
Assay [4] in a line: blood plasma total calcium and dialyzable phosphorus. The note with it: in words, Exp 1.
Protocol: (§3) Ten newly hatched birds were randomly placed in each section of the Petersime batteries until the birds were nine days old. The measurements described below were calculated on a pen basis; all statistical analyses were conducted on pen averages. Blood samples were taken by cardiac puncture with heparinized syringes from one randomly chosen bird from each pen on the ninth day before weighing the birds.
Assay [5] can be described thus: 9-day body weight, feed consumption and gain:feed (Example 1). The note with it: in words; for nine day weight: Example 1.
Protocol: Newly hatched Petersen X Arbor Acre cockerels obtained from a commercial hatchery were used. Animals were housed in electrically heated Petersime battery brooders with wire-mesh floors located in a room in which the temperature was maintained at 22° C., fluorescent lights were on 24 hours each day in the room and the cages, and sunlight was present during the day from large windows. No attempt was made to limit the natural production of vitamin D3. Feed and water were available to the chickens at all times.
as §3
At nine days of age, pen body weights were obtained for all birds and their feed consumption was recorded. […] Briefly, using a three week old chicken as the reference animal, a score of zero indicates normal cartilage which is narrow with little irregularities. […] Deep irregularities are apparent. A score of three indicates a large mass of cartilage in the proximal end of the tibia. The birds were also scored for phosphorus deficient rickets at the same time they were scored for tibial dyschondroplasia. Chickens which had normal proliferating prehypertrophied zone and a lengthened metaphyseal primary spongiosa were classified as phosphorus deficient rickets. The left tibia was removed for bone ash determination on the fat-free bone.
Assay [6] is described as follows: 16-day body weight and gain:feed (Example 2). The assay is classed as in vivo, chicken (Peterson X Arbor Acre cockerels). The note with it: D3 […], derivatives 10 μg/kg feed. The method, then:
The basal diet used is described above in Table 2. Disulfiram was added to the basal diet of some chickens as indicated in Table 10 at a level of 30 mg/kg of feed. […]

The test system of assay [7] is tibial dyschondroplasia. The assay is classed as in vivo, chicken (Peterson X Arbor Acre cockerels). The note with it: D3 […], derivatives 10 μg/kg feed. As to the method:
Deep irregularities are apparent.
(§1) The basal diet used is described above in Table 2. Disulfiram was added to the basal diet of some chickens as indicated in Table 10 at a level of 30 mg/kg of feed.
(§2) After the tibia was scored for incidence and severity of tibial dyschondroplasia, the left tibia was removed for a bone ash determination on the fat-free dried bone.

For assay [8], the system named is bone ash. Nature of the assay: bone ash (Example 2). The assay is classed as in vivo, chicken (Peterson X Arbor Acre cockerels). The settings on record: in words. The method, then: as §1, §2
Another assay deals with ^47 Ca retention. Description: 47Ca absorption and retention (Example 2). Also noted: key to ^47 Ca intercept / Ca^47 Ret.: % of administered 47Ca retained (y-intercept of retention-vs-days plot). The settings on record: for ^47 Ca intercept / ^47 Ca slope: Study 2. The assay is classed as in vivo, chicken (Peterson X Arbor Acre cockerels). As to the method:
Absorption and retention of dietary calcium was measured by orally dosing chicks with ^47 Ca and then measuring the total body radioactive count, as described in Suso and Edwards, "A Study of Techniques for Measuring ^65 Zn Absorption and Biological Half-life in the Chicken," Poult. Sci. 47:991-999 (1968). Specifically, ten seven day old birds in one pen under the indicated dietary treatments were dosed orally with 0.5 milliliter of water solution containing 0.5 microcuries of ^47 Ca and 0.1 to 1.0 micrograms of calcium. The total body radioactive content of the individual chickens was determined immediately following dosing, and also on days 7, 9, 12 and 14 following dosing. A plot of percent administered ^47 Ca which was retained versus number of days yields a line which has a slope corresponding to the half-life of the radioactive calcium in the chicken, and a y-intercept that corresponds to the amount of calcium absorbed by the chicken. Effect of vitamin D3 derivatives on Tibial Dyschondroplasia.

Assay [9] has as its system conversion of 25(OH)D3 to 1,25(OH)2 D3. The settings on record: chickens made acidotic; cited from earlier work.
The mark [10] stands for this setting: Study 1, with disulfiram 30 mg/kg feed.
[11] abbreviates: Study 2, with disulfiram 30 mg/kg feed.
The mark [12] stands for this setting: basal diet, D3 […], derivatives 10 μg/kg feed.
Setting [13] is: with disulfiram 30 mg/kg feed, D3 […], derivatives 10 μg/kg feed.
[14] abbreviates: Study 3, D3 […], derivatives 10 μg/kg feed.

Values joined by “and” are separate entries in the source; they are usually repeats but may differ in a detail not shown here. Identical values can stand only once. Like-named read-outs stand apart in the source and are kept apart here.
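Wherever #3/No. is given: score 3 means a large cartilage mass in the proximal tibia.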
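Wherever #3/total is given: score 3 means a large cartilage mass in the proximal tibia.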
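Wherever % #3 is given: score 3 means a large cartilage mass in the proximal tibia.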
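Wherever % N3 is given: score 3 means a large cartilage mass in the proximal tibia.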

For the compound `O.O=P([O-])([O-])O.[Na+].[Na+]` [P, Na2 HPO4 H2 O], in the assay on phytate phosphorus (in vivo), the Feces excreted is 451 and 602 and 606; the “IP5 excretion, percent of total phytin phosphorus” value was 5.76% and 2.70% and 6.87%; the “IP6 excretion, percent of total phytin phosphorus” value is 46.92% and 37.06% and 46.00%; the “IP6 phytate phosphorus in feces by HPLC” value was 3.99 mg/g and 3.03 mg/g and 3.68 mg/g. In addition, in the assay with phytate phosphorus (in vivo), the “Phytate phosphorus retention, FeCl3” value is 47 and 68 and 51; the “Phytate phosphorus retention, HPLC” value was 47 and 60 and 46; the “Phytin phosphorus retained (100 - total excreted)” value is 46.7% and 59.5% and 45.9%; the “Total phytate phosphorus in feces by HPLC” value was 4.54 mg/g and 3.32 mg/g and 4.35 mg/g. In the assay on phytate phosphorus (in vivo), the “Total phytin phosphorus excreted” value was 53.4% and 40.6% and 54.4%. For the same compound, the “amount of phosphorus in the feces” value in the assay on phytate phosphorus (in words, Exp 1) is reported as “approximately the same”. The “tibial dyschondroplasia (effect of dietary factor)” value in the assay with tibial dyschondroplasia [1] (chickens, dietary level) is “accentuate the development of the lesions”. The bone ash entry in the assay with bone ash [2] is recorded as “increased”. Also, the “incidence of phosphorus-deficient rickets” value in assay [3] is “decreased”. For the same compound, the blood plasma phosphorus result in assay [4] was “increased”. The nine day weight entry in assay [5] is “increased nine day weights”. Also, the “gain:feed ratio” value in assay [5] (Exp 1) is listed as “increased”.
Turning to `C=C1/C(=C\C=C2/CCC[C@]3(C)[C@@H]([C@H](C)CCCC(C)(C)O)CC[C@@H]23)C[C@@H](O)C[C@@H]1O` [1,25-(OH)2 D3, 1,25-dihydroxycholecalciferol], the “16 Day wt.” value is listed as 421 in assay [6] (Study 1, basal diet); 426 in assay [6] (setting [10]); 355 in assay [6] (Study 4). For the same compound, the “Gain:Feed” value is “.670” in assay [6] (Study 1, basal diet); “.701” in assay [6] (setting [10]); “.661” in assay [6] (Study 2, basal diet); “.684” in assay [6] (setting [11]). Besides, the 16 day wt amounted to 361 in assay [6] (Study 2, basal diet) and 377 in assay [6] (setting [11]). Further, in [6] (Study 3), the “16 Day Wt.” value was found to be 421. Moreover, the Gain/feed result in [6] (Study 3) is “.66”; in [6] (Study 4) it was “.652”. Also, the “#3/total” value with tibial dyschondroplasia [7] (Study 1, basal diet) is reported as 1/29; with tibial dyschondroplasia [7] (setting [10]) it was 4/30; in the assay on tibial dyschondroplasia [7] (Study 2, basal diet), 2/30; in the assay with tibial dyschondroplasia [7] (setting [11]) it was 6/30; with tibial dyschondroplasia [7] (Study 4), 4/52. Besides, in the assay with tibial dyschondroplasia [7] (Study 3), the “#3/No.” value is recorded as 5/58. The “% N2 + 3” value with tibial dyschondroplasia [7] (Study 3) was 16%. Further, in the assay with tibial dyschondroplasia [7] (Study 3), the “% N3” value amounted to 9%. Further, the “% #3” value in the assay on tibial dyschondroplasia [7] (Study 4) is listed as 8%. Besides, the bone ash result with bone ash [8] is on record as “increases bone ash”; with bone ash [2], “increased”. Further, the entries for the “^47 Ca intercept” value in the assay with ^47 Ca retention (setting [12]) and with ^47 Ca retention (setting [13]) were 84 and 70, respectively. Moreover, the “^47 Ca slope” value is -2.85 with ^47 Ca retention (setting [12]) and -2.11 with ^47 Ca retention (setting [13]). Also, the “Ca^47 Ret.” value in the assay with ^47 Ca retention (setting [14]) was 78. Further, the “Ca^47 slope” value in the assay on ^47 Ca retention (setting [14]) is given as “-.72”. Also, the “dietary ^47 Ca absorbed” value in the assay on ^47 Ca retention (in words, Example 2) was “significantly more dietary ^47 Ca absorbed”. The “half-life, or retention, of the calcium” value in the assay on ^47 Ca retention (in words, Example 2) is “increasing the half-life”. For the same compound, in the assay on tibial dyschondroplasia [1] (20 ng/day, Edwards, J. Nutr. 114:1001 (1984)), the “incidence of tibial dyschondroplasia” value was “no effect on the incidence of tibial dyschondroplasia”. The nine day weight result in assay [5] is on record as “increased”.
Turning to `Cl.N` [ammonium chloride], the “conversion of 25(OH)D3 to 1,25(OH)2 D3” value in assay [9] is on record as “reduced conversion”.
